Measured values: patent US20140370521A1, “IDENTIFICATION OF TWO NOVEL BIOMARKERS FOR NIEMANN-PICK DISEASE TYPE C” (The USA , as Represented by the Secretary, Department of …, priority 2011, published 2014)
“Also recorded” adds a separate entry of the source.

Columns and labels:
cathepsin D (CTSD) = assay: Serum cathepsin D (CTSD) by ELISA in NPC1 patients treated or not with miglustat; assay type: in vivo, human
Protocol: (§1) Since 60% of the patients were being treated with off-label miglustat, the effect of treatment on LGALS3 or CTSD concentrations were investigated. […] Since individual responses could be masked by the large degree of variation between patients, LGALS3 and CTSD concentrations were also assessed in serum samples from six patients before and after they begin the treatment.
(§2) The study was approved by the Eunice Kennedy Shriver National Institute of Child Health and Human Development Institutional Review Board. Informed consent and, when appropriate, assent were obtained. Serum samples were obtained from 16 male and 14 female NPC1 patients participating in a Natural History trial (06-CH-0186) and 16 control individuals of similar age and gender distribution. Mean age of patients and controls were 7.9±5.8 years old and 9.1±4.2 years old respectively (P-value=0.3720). Phenotypic severity was determined using the severity scale developed by Yanjanin et al., Am. J. Med. Genet. B. Neuropsychiatr. Genet. 153B:132-40 (2010), and ranged from 0 to 40. […]
(§3) Serum levels of cathepsin D (CTSD; EMD Millipore, Billerica, Mass.), and galectin-3 (LGALS3; R&D systems, Minneapolis, Minn.) were measured in triplicate by ELISA, following manufacturers' instructions. […]

galectin-3 (LGALS3) = assay: Serum galectin-3 (LGALS3) by ELISA in NPC1 patients treated or not with miglustat; assay type: in vivo, human
Protocol: as §1, §2, §3

[1] = NPC patients; Patterson et al., Lancet Neurol. 6:765-72 (2007); cited from earlier work

SMILES: CCCCN1C[C@H](O)[C@@H](O)[C@H](O)[C@H]1CO [miglustat]
- CTSD concentrations in serum of NPC patients treated or not with miglustat (cathepsin D (CTSD); NPC1 patients, off-label miglustat versus untreated group, serum, FIG. 7C): No statistical difference; also recorded: no significant differences
- Effect of miglustat treatment on CTSD level, before versus after start of treatment (cathepsin D (CTSD); six patients, serum samples before and after beginning treatment, FIG. 7E): did not have any effect
- LGALS3 concentrations in serum of NPC patients treated or not with miglustat (galectin-3 (LGALS3); NPC1 patients, off-label miglustat versus untreated group, serum, FIG. 7B): No statistical difference; also recorded: no significant differences
- Effect of miglustat treatment on LGALS3 level, before versus after start of treatment (galectin-3 (LGALS3); six patients, serum samples before and after beginning treatment, FIG. 7D): did not have any effect
- Efficacy in slowing the neurological progression of the disease [1]: has shown efficacy in slowing the neurological progression of the disease
